In experiment [1] the target is Protein farnesyltransferase (Homo sapiens, UniProt P49354+P49356). Briefly: Inhibition of [3H]FPP incorporation into recombinant human Ha-Ras-CVLS by farnesyl transferase. It counts as protein-complex assay.
Experiment [2] concerns the target Geranylgeranyl transferase type I (Homo sapiens, UniProt P49354+P53609). Briefly: Inhibition of [3H]-GGPP incorporation into recombinant human Ha-Ras-CVLL by Geranylgeranyl transferase type I. It counts as protein-complex assay.

The results in this text go back to ChEMBL document CHEMBL1136310, “Pyrazino[1,2-a]indole-1,4-diones, simple analogues of gliotoxin, as selective inhibitors of geranylgeranyltransferase I” (Bioorg Med Chem Lett, 2003).

Some results are limits rather than exact numbers.

As to `COc1cccc2c1cc1n2C(=O)C(SC(C)=O)N(C)C1=O` (stereo unspecified), the results for the IC50 in experiment [1] and in experiment [2] were 748 µM and 90.3 µM, respectively.

With `COc1cccc2c1cc1n2C(=O)CN(C)C1=O`, the IC50 in experiment [1] and in experiment [2] was greater than 100 µM in each case.

As to `CN1C(=O)[C@]23CC4=CC=C[C@H](O)[C@H]4N2C(=O)[C@@]1(CO)SS3` [GLIOTOXIN], the figures for the IC50 in experiment [1] and in experiment [2] were 80 µM and 17 µM, respectively.

For the compound `CN1CC(=O)n2c(cc3ccccc32)C1=O`, the half-maximal inhibitory concentration (IC50) in experiment [1] and in experiment [2] was greater than 100 µM throughout.

Consider `COc1cccc2c1CC1C(=O)N(C)CC(=O)N21` (stereo unspecified), for which the IC50 in experiment [1] and in experiment [2] was greater than 100 µM each time.

Turning to `CN1CC(=O)N2c3ccccc3CC2C1=O` (stereo unspecified), the concentration for half-maximal inhibition (IC50) in experiment [1] and in experiment [2] was greater than 100 µM each time.

Regarding `COc1cccc2c1cc1n2C(=O)C(SSCc2ccccc2)N(C)C1=O` (stereo unspecified), the IC50 in experiment [1] and in experiment [2] was greater than 100 µM throughout.

As for `CN1C(=O)c2cc3ccccc3n2C(=O)C1SSCc1ccccc1` (stereo unspecified), the IC50 in experiment [1] and in experiment [2] was greater than 100 µM each time.
